The source of these data is patent US8685970B2, “Quinolines and related analogs as sirtuin modulators” (GlaxoSmithKline, LLC, priority 2008, dated 2014).

In this assay the target is T1, SIRT1 (Homo sapiens, UniProt Q96EB6).
T1 sequence (Q96EB6 1-747): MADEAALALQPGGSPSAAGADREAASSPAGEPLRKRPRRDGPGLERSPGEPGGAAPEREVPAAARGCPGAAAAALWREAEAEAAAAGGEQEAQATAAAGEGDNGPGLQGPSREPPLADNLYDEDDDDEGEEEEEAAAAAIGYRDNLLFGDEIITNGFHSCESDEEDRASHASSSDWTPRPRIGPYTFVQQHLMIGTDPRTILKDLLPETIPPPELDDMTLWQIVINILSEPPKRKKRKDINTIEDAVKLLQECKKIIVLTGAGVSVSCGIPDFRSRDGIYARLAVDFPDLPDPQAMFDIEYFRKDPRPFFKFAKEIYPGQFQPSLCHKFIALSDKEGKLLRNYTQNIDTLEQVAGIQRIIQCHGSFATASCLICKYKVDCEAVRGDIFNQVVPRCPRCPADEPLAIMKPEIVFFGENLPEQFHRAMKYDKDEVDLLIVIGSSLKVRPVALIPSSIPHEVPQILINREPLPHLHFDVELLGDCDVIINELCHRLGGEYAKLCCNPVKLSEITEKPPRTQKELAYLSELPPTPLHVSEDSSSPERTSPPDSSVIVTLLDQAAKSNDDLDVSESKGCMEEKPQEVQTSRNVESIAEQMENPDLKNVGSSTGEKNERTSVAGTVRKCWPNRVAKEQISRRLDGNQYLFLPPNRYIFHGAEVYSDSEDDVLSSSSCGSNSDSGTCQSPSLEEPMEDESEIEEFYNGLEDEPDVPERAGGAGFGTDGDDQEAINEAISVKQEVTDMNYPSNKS
In words: Mass spectrometry based SIRT1 deacetylation assay (activation). Type of assay: biochemical. The note with it: 10 nM SIRT1, 0.5 μM peptide substrate, 120 μM βNAD+, 25 min at 25° C. The essentials:
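Recombinant N-His-tagged SIRT1 (E. coli BL21(DE3)), 10 nM, incubated 25 min at 25 °C with 0.5 μM biotin/5TMR-labelled acetyl-p53-derived 20-mer peptide and 120 μM βNAD+ in Tris-acetate pH 8 buffer with DTT and BSA. Formic acid stop; MS quantifies acetylated vs deacetylated peptide. EC1.5 = concentration giving 150% activation versus DMSO.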
`O=C(Nc1cccnc1)c1cccc2cnc(-c3cccc(N4CCOCC4)c3)nc12` [Compound 314]: the “% Fold Act. (percent maximum fold activation)” value was “B (Fold Activation <200%)” and the “EC1.5 (concentration of test compound that results in 150% activation of SIRT1)” value is reported as “A (EC1.5<1.0 uM)”.
For the molecule `O=C(Nc1ccccn1)c1cccc2cnc(-c3cccc(N4CCOCC4)c3)nc12` [Compound 315], the “% Fold Act. (percent maximum fold activation)” value was “A (Fold activation >200%)” and the “EC1.5 (concentration of test compound that results in 150% activation of SIRT1)” value was “A (EC1.5<1.0 uM)”.
On to `O=C(Nc1cccc(CN2CCCC2)c1)c1cccc2ccc(-c3cccc(C(F)F)c3)nc12` [Compound 316], for which the “% Fold Act. (percent maximum fold activation)” value is reported as “A (Fold activation >200%)” and the “EC1.5 (concentration of test compound that results in 150% activation of SIRT1)” value is “A (EC1.5<1.0 uM)”.
For `O=C(Nc1cccc2ccc(-c3cccnc3)nc12)c1cccc(OCCN2CCOCC2)c1` [Compound 317], in that order: “A (Fold activation >200%)” and “B (EC1.5 1-25 uM)”.
`O=C(Nc1cccc2ccc(-c3cccc(C(F)(F)F)c3)nc12)c1cccc(OCCN2CCOCC2)c1` [Compound 318]: the “EC1.5 (concentration of test compound that results in 150% activation of SIRT1)” value is on record as “C (EC1.5>25 uM)”.
For the molecule `O=C(Nc1cccc(N2CCOCC2)n1)c1cccc2ccc(-c3cccc(C(F)(F)F)c3)nc12` [Compound 319], the “% Fold Act. (percent maximum fold activation)” value is recorded as “A (Fold activation >200%)” and the “EC1.5 (concentration of test compound that results in 150% activation of SIRT1)” value is on record as “A (EC1.5<1.0 uM)”.
Consider `O=C(Nc1cccc(N2CCCC2)n1)c1cccc2ccc(-c3cccc(C(F)(F)F)c3)nc12` [Compound 320], for which the “% Fold Act. (percent maximum fold activation)” value was “A (Fold activation >200%)” and the “EC1.5 (concentration of test compound that results in 150% activation of SIRT1)” value is “A (EC1.5<1.0 uM)”.
For the molecule `O=C(Nc1ccnc(N2CCOCC2)c1)c1cccc2ccc(-c3cccc(C(F)(F)F)c3)nc12` [Compound 321], the “% Fold Act. (percent maximum fold activation)” value is listed as “A (Fold activation >200%)” and the “EC1.5 (concentration of test compound that results in 150% activation of SIRT1)” value is “A (EC1.5<1.0 uM)”.
As for `O=C(Nc1ccnc(N2CCCC2)c1)c1cccc2ccc(-c3cccc(C(F)(F)F)c3)nc12` [Compound 322], the “% Fold Act. (percent maximum fold activation)” value is recorded as “A (Fold activation >200%)” and the “EC1.5 (concentration of test compound that results in 150% activation of SIRT1)” value is recorded as “A (EC1.5<1.0 uM)”.
